Data from ChEMBL document CHEMBL4715866, “A Chemical Probe for Dark Kinase STK17B Derives Its Potency and High Selectivity through a Unique P-Loop Conformation” (J Med Chem, 2020).
≈ marks a conversion by molar mass, not a printed value.

What was measured:
[1] = biological target: T1, Serine/threonine-protein kinase 17B (Homo sapiens, UniProt O94768)
T1 sequence (O94768 whole entry): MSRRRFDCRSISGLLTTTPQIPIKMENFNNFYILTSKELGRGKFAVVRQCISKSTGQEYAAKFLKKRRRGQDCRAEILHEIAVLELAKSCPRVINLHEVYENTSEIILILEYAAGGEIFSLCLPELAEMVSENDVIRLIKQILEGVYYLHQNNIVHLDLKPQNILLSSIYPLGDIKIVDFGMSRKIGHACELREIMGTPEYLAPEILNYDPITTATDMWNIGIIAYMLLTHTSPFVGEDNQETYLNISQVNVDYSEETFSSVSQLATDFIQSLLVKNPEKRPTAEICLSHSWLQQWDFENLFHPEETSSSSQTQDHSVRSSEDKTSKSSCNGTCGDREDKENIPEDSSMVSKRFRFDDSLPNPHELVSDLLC

[2] = biological target: T1, Serine/threonine-protein kinase 17B; test: Inhibition of N-terminal His-tagged STK17B kinase domain (25 to 329 residues) (unknown origin) expressed in Escherichia coli incubated for 90 mins by Kinase seeker split luciferase assay
[3] = Stability in mouse liver microsomes assessed as compound remaining at 0.1 mM in presence of NADPH regeneration system after 30 mins by LC-MS/MS analysis; assay type: ADME, Microsome; settings: read-out: Stabilty
[4] = Kinetic solubility in pH 7.4 PBS; assay type: physicochemical; settings: read-out: Kinetic_solubility
[5] = biological target: T2, Serine/threonine-protein kinase 17A (Homo sapiens, UniProt Q9UEE5); test: Binding affinity to STK17A (unknown origin) by KINOMEscan scanMAX assay
T2 sequence (Q9UEE5 whole entry): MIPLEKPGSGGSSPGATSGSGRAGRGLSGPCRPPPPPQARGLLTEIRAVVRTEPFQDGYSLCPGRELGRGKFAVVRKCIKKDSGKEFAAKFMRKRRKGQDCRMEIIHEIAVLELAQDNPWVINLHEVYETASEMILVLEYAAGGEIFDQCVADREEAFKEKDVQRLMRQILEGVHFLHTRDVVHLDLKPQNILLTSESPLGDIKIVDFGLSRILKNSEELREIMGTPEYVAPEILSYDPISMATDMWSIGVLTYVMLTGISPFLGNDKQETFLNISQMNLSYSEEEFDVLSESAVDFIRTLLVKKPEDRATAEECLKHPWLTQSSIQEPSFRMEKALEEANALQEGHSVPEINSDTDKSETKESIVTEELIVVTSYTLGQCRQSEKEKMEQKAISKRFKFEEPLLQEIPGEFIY

[6] = biological target: T2, Serine/threonine-protein kinase 17A; test: Inhibition of STK17A (unknown origin) incubated for 90 mins by Kinase seeker split luciferase assay
[7] = biological target: T3, Homeodomain-interacting protein kinase 4 (Homo sapiens, UniProt Q8NE63); test: Binding affinity to human HIPK4 by KINOMEscan scanMAX assay
T3 sequence (Q8NE63 whole entry): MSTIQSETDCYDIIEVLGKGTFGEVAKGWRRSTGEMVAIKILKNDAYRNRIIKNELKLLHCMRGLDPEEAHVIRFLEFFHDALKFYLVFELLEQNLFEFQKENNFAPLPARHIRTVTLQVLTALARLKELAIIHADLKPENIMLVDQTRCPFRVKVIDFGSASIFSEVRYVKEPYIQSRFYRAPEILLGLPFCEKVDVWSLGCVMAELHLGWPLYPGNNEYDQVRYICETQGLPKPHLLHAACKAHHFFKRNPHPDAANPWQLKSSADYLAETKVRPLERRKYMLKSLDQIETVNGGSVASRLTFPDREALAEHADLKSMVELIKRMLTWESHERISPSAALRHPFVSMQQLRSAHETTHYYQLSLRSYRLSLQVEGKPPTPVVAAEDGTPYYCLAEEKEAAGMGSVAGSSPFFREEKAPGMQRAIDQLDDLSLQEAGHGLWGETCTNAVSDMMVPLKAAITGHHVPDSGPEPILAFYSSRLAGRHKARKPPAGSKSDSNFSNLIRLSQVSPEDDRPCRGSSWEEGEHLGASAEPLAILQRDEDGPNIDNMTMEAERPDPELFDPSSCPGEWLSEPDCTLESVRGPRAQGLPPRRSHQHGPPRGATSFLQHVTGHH

[8] = biological target: T1, Serine/threonine-protein kinase 17B; test: Binding affinity to N-terminal His-tagged STK17B kinase domain (25 to 329 residues) (unknown origin) expressed in Escherichia coli by KINOMEscan scanMAX assay

Compound	IC50 [1]	IC50 [2]	remaining at 0.5 h, 100 µM [3]	solubility kinetic [4]	also measured
COc1ccccc1-c1cc2c(SCC(=O)O)ncnc2s1	> 10000 nM	880 nM			
CCc1ccc(-c2cc3ncnc(SCC(=O)O)c3s2)cc1	380 nM	41 nM			
CCOC(=O)CNc1ncnc2cc(-c3ccc(SC)cc3)sc12	> 10000 nM				
CC(=O)Nc1cccc(-c2cc3ncnc(SCC(=O)O)c3s2)c1	> 10000 nM	35 nM			
O=C(O)CSc1ncnc2cc(-c3ccc(OCc4ccccc4)cc3)sc12	> 10000 nM	110 nM			
O=C(O)CSc1ncnc2cc(-c3ccc(C4CC4)cc3)sc12	530 nM	62 nM	66%	55 µg/mL (≈ 161 µM)	
O=C(O)CSc1ncnc2cc(-c3cccc(N4CCOCC4)c3)sc12	2900 nM	83 nM	73%	54 µg/mL (≈ 139 µM)	
O=C(O)CSc1ncnc2cc(-c3ccc(Cl)cc3)sc12	680 nM	39 nM			
CSc1ccc(-c2cc3ncnc(SCC(=O)O)c3s2)cc1	210 nM	20 nM	0%	42 µg/mL (≈ 121 µM)	Kd [5]: 230 nM
COc1ccccc1-c1cc2ncnc(SCC(=O)O)c2s1	1700 nM	110 nM	24%	69 µg/mL (≈ 208 µM)	
CSc1ccc(-c2cc3ncnc(SCC(=O)O)c3s2)cc1F	530 nM	27 nM	18%	52 µg/mL (≈ 142 µM)	
N#Cc1ccc(-c2cc3ncnc(SCC(=O)O)c3s2)cc1	3200 nM	35 nM			
CSc1cccc(-c2cc3c(SCC(=O)O)ncnc3s2)c1	> 10000 nM				
COc1ccc(-c2cc3ncnc(SCC(=O)O)c3s2)cc1F	700 nM	18 nM	88%	49 µg/mL (≈ 140 µM)	
O=C(O)CSc1ncnc2cc(-c3ccc(C(F)(F)F)cc3)sc12	340 nM	33 nM	88%	57 µg/mL (≈ 154 µM)	
CCOC(=O)COc1ncnc2cc(-c3ccc(Cl)cc3)sc12	> 10000 nM				
CC(C)Sc1ccc(-c2cc3ncnc(SCC(=O)O)c3s2)cc1	> 10000 nM	49 nM			
O=C(O)CSc1ncnc2cc(-c3cccc(F)c3)sc12	980 nM	49 nM			
CC(=O)c1ccc(-c2cc3ncnc(SCC(=O)O)c3s2)cc1	1500 nM	13 nM			
CSc1ccc(-c2cc3c(SCC(=O)O)ncnc3s2)cc1	> 10000 nM				

Compound	IC50 [1]	IC50 [2]	remaining at 0.5 h, 100 µM [3]	solubility kinetic [4]	also measured
C[S+]([O-])c1ccc(-c2cc3ncnc(SCC(=O)O)c3s2)cc1 (stereo not drawn)	> 10000 nM	7 nM			
CC(C)c1ccc(-c2cc3ncnc(SCC(=O)O)c3s2)cc1	550 nM	59 nM	35%	23 µg/mL (≈ 66.8 µM)	
CSc1ccc(-c2cc3ncnc(NCC(=O)O)c3s2)cc1	> 10000 nM				
CC(=O)c1ccc(-c2cc3ncnc(SCC(=O)O)c3s2)cn1	> 10000 nM	37 nM			
CSc1ccc(-c2cc3ncnc(SCC(N)=O)c3s2)cc1	> 10000 nM				
CSc1cccc(-c2cc3ncnc(SCC(=O)O)c3s2)c1	500 nM	49 nM			
O=C(O)CSc1ncnc2cc(-c3ccccc3F)sc12	1200 nM	60 nM	45%	51 µg/mL (≈ 159 µM)	
CC(=O)Nc1ccc(-c2cc3ncnc(SCC(=O)O)c3s2)cc1	> 10000 nM	23 nM			
O=C(O)CSc1ncnc2cc(-c3ccc(N4CCOCC4)cc3)sc12	720 nM	14 nM	63%	61 µg/mL (≈ 157 µM)	
COc1ccc(-c2cc3c(SCC(=O)O)ncnc3s2)cc1	> 10000 nM				
O=C(O)CSc1ncnc2sc(-c3ccc(Cl)c(Cl)c3)cc12	> 10000 nM				
O=C(O)CSc1ncnc2cc(-c3cccs3)sc12	650 nM	63 nM	47%	56 µg/mL (≈ 182 µM)	
O=C(O)CSc1ncnc2sc(-c3cc4ccccc4s3)cc12	> 10000 nM	4800 nM			IC50 [6]: > 10000 nM; Kd [7]: 290 nM; Kd [8]: 910 nM; Kd [5]: 9800 nM
O=C(O)COc1ncnc2cc(-c3ccc(Cl)cc3)sc12	> 10000 nM				
O=C(O)CSc1ncnc2cc(-c3cccc(OC(F)(F)F)c3)sc12	500 nM	280 nM			
CCOC(=O)c1ccc(-c2cc3ncnc(SCC(=O)O)c3s2)cc1	870 nM	40 nM	0%	59 µg/mL (≈ 158 µM)	
O=C(O)CSc1ncnc2cc(-c3ccc(F)c(F)c3)sc12	820 nM	74 nM	95%	65 µg/mL (≈ 192 µM)	
C=Cc1ccc(-c2cc3ncnc(SCC(=O)O)c3s2)cc1	120 nM	28 nM	38%	74 µg/mL (≈ 225 µM)	
COc1cccc(-c2cc3c(SCC(=O)O)ncnc3s2)c1	> 10000 nM				
O=C(O)CSc1ncnc2cc(-c3ccc(Cl)c(Cl)c3)sc12	310 nM	92 nM			
